Experimental data from patent publication US4902699A, “Oxime of 1, 2, 5, 6-tetrahydropyridine compounds their use as medicaments and the compositions containing them” (Roussel Uclaf, priority 1987, dated 1990).
Structures can show the parent of a compound that is named as a salt. Where two headings read alike, the source gives them in different places.

Columns and labels:
[1] = Diarrhoeic activity; design: species or system mice; conditions: mouse, in vivo; oral route; dose which causes diarrhoea in 50% of the animals; read-out: DE50 (the source's name)
Description: The test is carried out on male mice (CD1 Charles Rivers) weighing […], after fasting for 6 hours. The product dissolved at 5% in methocel is administered by oral route by means of an oesophage probe.
Control animals receive only the excipient.
After treatment, the animals are placed separately in cages of which the base is covered with blotting paper, and they are put under observation for 30, 60, 120 and 180 minutes.
The sheets of absorbent paper are changed after each observation.
The consistency of the feces is evaluated according to the method of Randall and Baruth (Arch. Int. Pharmacodyn. 220, 94, 1976) according to the following scale of values.
1: feces slightly soft, with or without a damp halo
2: feces slightly soft, with a well defined circle of humidity.
3: feces soft with a large circle of humidity.
4: feces without consistency with a very large circle of humidity.
For each product, the dose is noted which causes diarrhoea in 50% of the animals according to the method of Miller and Tainter (Proc. Soc. Exp. Biol. Med., 57, 261, 1944).

[2] = test system: male mice (CD1 Charles RAivers); experiment: Hypothermic activity; format: in vivo; conditions: Mus musculus, read-out: Effective dose (-1° C.)
Description: (§1) The test is carried out on male mice (CD1 Charles RAivers) weighing 25-30 g, having fasted for 6 hours.
The temperature of the body is noted by means of a thermocouple inserted about 1.5 cm in the rectum and connected to an electric temperature recorder.
The products are administered by oral or sub-cutaneous route and the temperatures are noted at the instant 0 and at 30 minutes, 1 hour, 2 hours and 2 and a half hours after treatment.
The degree of hypothermia is evaluated as the difference between the treated animals and the controls, and the dose necessary to reduce the body temperature by 1° C. is noted.

[3] = test system: male mice (CD1 Charles RAivers); experiment: Variation of the body temperature (duration of action); format: in vivo
Description: as §1
The temperature of the body is noted by means of a thermocouple inserted about 1.5 cm in the rectum and connected to an electric temperature recorder. […]
The duration of action of the products is determined, using the doses able to reduce the temperature by 1° to 1.5° C.

[4] = Acute toxicity, oral; design: species or system mice; conditions: mouse, in vivo, mortality during 7 days
Description: The test was carried out on male mice (CD1 Charles Rivers), of 22 to 24 g, having fasted for 16 hours. […] The mortality is noted during the 7 days following the treatment.

[5] = test system: ileum isolated from guinea-pig; experiment: Test of ileum isolated from guinea-pig, agonist (contracting) activity; conditions: Cavia porcellus; negative logarithm of the dose which produces 50% of the maximum effect; read-out: pD2 (converted)
Description: Pieces of ileum are removed from guinea-pigs killed by decapitation. The isolated ileum is placed in 10 cm^3 of Tyrode solution at 37° C. and aerated with a mixture of oxygen (95%) and carbon dioxide gas (5%). The contractions due to the products are registered by means of a detector connected to a polygraph. The products to be tested are added at concentrations between 1.10^-3 M and 1.10^-8 M/l.
The products presenting a contracting effect are tested vis-a-vis atropine and hexamethonium in order to establish if the activity is of "muscarine" or "nicotine" type.
The agonist activity is expressed in pD2 (negative logarithm of the dose which produces 50% of the maximum effect).

[6] = Solubility; format: physicochemical

CON=CC1=CCCN(OC(=O)Nc2ccc(Cl)cc2)C1 [Example 14, Methyl ether of 1-(4-chlorophenylaminocarbonyloxy)-1,2,5,6-tetrahydropyridin-3-carboxaldehyde oxime]
ED50 [1]: 10 mg/kg
ED (-1 C) ([2]; O.R. (oral route)): 1.8 mg/kg
ED (-1 C) ([2]; SC.R (sub-cutaneous route)): 1.8 mg/kg
Variations of the body temperature ([3]; os, 2.5 mg/kg, 30 min): -1.3 °C
Variations of the body temperature ([3]; os, 2.5 mg/kg, 60 min): -1.5 °C
Variations of the body temperature ([3]; os, 2.5 mg/kg, 120 min): -0.3 °C
Variations of the body temperature ([3]; os, 2.5 mg/kg, 180 min): +0.1 °C
Variations of the body temperature ([3]; sc, 2.5 mg/kg, 30 min): -0.4 °C
Variations of the body temperature ([3]; sc, 2.5 mg/kg, 60 min): -1.5 °C
Variations of the body temperature ([3]; sc, 2.5 mg/kg, 120 min): -1.3 °C
Variations of the body temperature ([3]; sc, 2.5 mg/kg, 180 min): -0.2 °C
LD50 at 168 h [4]: > 1000 mg/kg
EC50 [5]: > 100 µM

COC(=O)C1=CCCN(C)C1 [Arecoline HBr, reference compound]
ED (-1 C) ([2]; O.R. (oral route)): 194 mg/kg
ED (-1 C) ([2]; SC.R (sub-cutaneous route)): 3 mg/kg
Variations of the body temperature ([3]; os, 200 mg/kg, 30 min): -1.1 °C
Variations of the body temperature ([3]; os, 200 mg/kg, 60 min): -1.0 °C
Variations of the body temperature ([3]; os, 200 mg/kg, 120 min): -0.2 °C
Variations of the body temperature ([3]; os, 200 mg/kg, 180 min): -0.1 °C
Variations of the body temperature ([3]; sc, 3.5 mg/kg, 30 min): -1.5 °C
Variations of the body temperature ([3]; sc, 3.5 mg/kg, 60 min): -0.1 °C
Variations of the body temperature ([3]; sc, 3.5 mg/kg, 120 min): +0.2 °C
Variations of the body temperature ([3]; sc, 3.5 mg/kg, 180 min): +0.2 °C

CON=CC1=CCCN(OC(=O)c2ccccc2)C1 [Example 7, Methyl ether of 1-benzoyloxy-1,2,5,6-tetrahydropyridin-3-carboxaldehyde oxime]
ED50 [1]: 1.5 mg/kg
ED (-1 C) ([2]; O.R. (oral route)): 0.42 mg/kg
ED (-1 C) ([2]; SC.R (sub-cutaneous route)): 0.21 mg/kg
Variations of the body temperature ([3]; os, 0.5 mg/kg, 30 min): -1.1 °C
Variations of the body temperature ([3]; os, 0.5 mg/kg, 60 min): -0.9 °C
Variations of the body temperature ([3]; os, 0.5 mg/kg, 180 min): +0.1 °C
Variations of the body temperature ([3]; sc, 0.25 mg/kg, 30 min): -1.2 °C
Variations of the body temperature ([3]; sc, 0.25 mg/kg, 60 min): -0.9 °C
Variations of the body temperature ([3]; sc, 0.25 mg/kg, 180 min): +0.1 °C
LD50 at 168 h [4]: 90 mg/kg
EC50 [5]: > 100 µM

CON=CC1=CCCN(OC(=O)Nc2ccc(OC)cc2)C1 [Example 16, Methyl ether of 1-paramethoxyphenylaminocarbonyloxy-1,2,5,6-tetrahydropyridin-3-carboxaldehyde oxime]
ED50 [1]: 6 mg/kg
ED (-1 C) ([2]; O.R. (oral route)): 0.88 mg/kg
ED (-1 C) ([2]; SC.R (sub-cutaneous route)): 0.78 mg/kg
Variations of the body temperature ([3]; os, 1. mg/kg, 30 min): -1.1 °C
Variations of the body temperature ([3]; os, 1. mg/kg, 60 min): -1.1 °C
Variations of the body temperature ([3]; os, 1. mg/kg, 120 min): -0.1 °C
Variations of the body temperature ([3]; sc, 1. mg/kg, 30 min): -1.2 °C
Variations of the body temperature ([3]; sc, 1. mg/kg, 60 min): -1.5 °C
Variations of the body temperature ([3]; sc, 1. mg/kg, 120 min): -0.3 °C
Variations of the body temperature ([3]; sc, 1. mg/kg, 180 min): +0.1 °C
LD50 at 168 h [4]: 60 mg/kg
EC50 [5]: > 100 µM

CON=CC1=CCCN(O)C1 [Example 1, Hydrochloride of the methyl ether of 1-hydroxy-1,2,5,6-tetrahydropyridin-3-carboxaldehyde oxime]
ED50 [1]: 0.5 mg/kg
ED (-1 C) ([2]; O.R. (oral route)): 0.19 mg/kg
ED (-1 C) ([2]; SC.R (sub-cutaneous route)): 0.2 mg/kg
Variations of the body temperature ([3]; os, 0.25 mg/kg, 30 min): -1.4 °C
Variations of the body temperature ([3]; os, 0.25 mg/kg, 60 min): -1.2 °C
Variations of the body temperature ([3]; os, 0.25 mg/kg, 120 min): -0.1 °C
Variations of the body temperature ([3]; os, 0.25 mg/kg, 180 min): -0.1 °C
Variations of the body temperature ([3]; sc, 0.25 mg/kg, 30 min): -1.4 °C
Variations of the body temperature ([3]; sc, 0.25 mg/kg, 60 min): -1.1 °C
Variations of the body temperature ([3]; sc, 0.25 mg/kg, 120 min): -0.1 °C
Variations of the body temperature ([3]; sc, 0.25 mg/kg, 180 min): -0.1 °C
LD50 at 168 h [4]: 60 mg/kg
EC50 [5]: 4.17 µM

CON=CC1=CCCN(OC)C1 [Example 2, Hydrochloride of the methyl ether of 1-methoxy-1,2,5,6-tetrahydropyridin-3-carboxaldehyde oxime]
Solubility in 2N HCl ([6]; 2N HCl): Soluble
Solubility in 2N NaOH ([6]; 2N NaOH): Soluble
Solubility in water ([6]; H2O): Soluble

CCOC(=O)ON1CCC=C(C=NOC)C1 [Example 6, Methyl ether of 1-ethoxy carbonyloxy-1,2,5,6-tetrahydropyridin-3-carboxaldehyde oxime]
ED50 [1]: 0.6 mg/kg
ED (-1 C) ([2]; O.R. (oral route)): 0.26 mg/kg
ED (-1 C) ([2]; SC.R (sub-cutaneous route)): 0.24 mg/kg
Variations of the body temperature ([3]; os, 0.35 mg/kg, 30 min): -1.3 °C
Variations of the body temperature ([3]; os, 0.35 mg/kg, 60 min): -1.1 °C
Variations of the body temperature ([3]; os, 0.35 mg/kg, 120 min): -0.1 °C
Variations of the body temperature ([3]; sc, 0.35 mg/kg, 30 min): -1.4 °C
Variations of the body temperature ([3]; sc, 0.35 mg/kg, 60 min): -1.1 °C
Variations of the body temperature ([3]; sc, 0.35 mg/kg, 120 min): -0.1 °C
Variations of the body temperature ([3]; sc, 0.35 mg/kg, 180 min): +0.1 °C
LD50 at 168 h [4]: 125 mg/kg
EC50 [5]: 11.5 µM

CON=CC1=CCCN(OC(=O)Nc2ccc(C(C)C)cc2)C1 [Example 15, Methyl ether of 1-(4-isopropylphenylaminocarbonyloxy) 1,2,5,6-tetrahydropyridin-3-carboxaldehyde oxime]
ED50 [1]: 20 mg/kg
ED (-1 C) ([2]; O.R. (oral route)): 1.9 mg/kg
ED (-1 C) ([2]; SC.R (sub-cutaneous route)): 2.4 mg/kg
Variations of the body temperature ([3]; os, 2. mg/kg, 30 min): -0.8 °C
Variations of the body temperature ([3]; os, 2. mg/kg, 60 min): -1.0 °C
Variations of the body temperature ([3]; os, 2. mg/kg, 120 min): +0. °C.
Variations of the body temperature ([3]; os, 2. mg/kg, 180 min): +0.1 °C
Variations of the body temperature ([3]; sc, 4. mg/kg, 30 min): -0.5 °C
Variations of the body temperature ([3]; sc, 4. mg/kg, 60 min): -1.5 °C
Variations of the body temperature ([3]; sc, 4. mg/kg, 120 min): -1.5 °C
Variations of the body temperature ([3]; sc, 4. mg/kg, 180 min): -0.3 °C
LD50 at 168 h [4]: 350 mg/kg
EC50 [5]: > 100 µM

CON=CC1=CCCN(OC(=O)Nc2ccccc2)C1 [Example 13, Methyl ether of 1-phenylaminocarbonyloxy 1,2,5,6-tetrahydropyridin-3-carboxaldehyde oxime]
ED50 [1]: 5 mg/kg
ED (-1 C) ([2]; O.R. (oral route)): 0.74 mg/kg
ED (-1 C) ([2]; SC.R (sub-cutaneous route)): 0.43 mg/kg
Variations of the body temperature ([3]; os, 1. mg/kg, 30 min): -1.4 °C
Variations of the body temperature ([3]; os, 1. mg/kg, 60 min): -1.1 °C
Variations of the body temperature ([3]; os, 1. mg/kg, 120 min): -0.1 °C
Variations of the body temperature ([3]; os, 1. mg/kg, 180 min): +0. °C.
Variations of the body temperature ([3]; sc, 0.5 mg/kg, 30 min): -1.2 °C
Variations of the body temperature ([3]; sc, 0.5 mg/kg, 60 min): -1.2 °C
Variations of the body temperature ([3]; sc, 0.5 mg/kg, 120 min): -0.1 °C
LD50 at 168 h [4]: 250 mg/kg
EC50 [5]: > 100 µM

CCCNC(=O)ON1CCC=C(C=NOC)C1 [Example 10, Methyl ether of 1-propyl aminocarbonyloxy-1,2,5,6-tetrahydropyridin-3-carboxyaldehyde oxime]
ED50 [1]: 20 mg/kg
ED (-1 C) ([2]; O.R. (oral route)): 1.4 mg/kg
ED (-1 C) ([2]; SC.R (sub-cutaneous route)): 1.3 mg/kg
Variations of the body temperature ([3]; os, 1.56 mg/kg, 30 min): -1.2 °C
Variations of the body temperature ([3]; os, 1.56 mg/kg, 60 min): -1.0 °C
Variations of the body temperature ([3]; os, 1.56 mg/kg, 120 min): -0.1 °C
Variations of the body temperature ([3]; os, 1.56 mg/kg, 180 min): +0.1 °C
Variations of the body temperature ([3]; sc, 1.56 mg/kg, 30 min): -1.2 °C
Variations of the body temperature ([3]; sc, 1.56 mg/kg, 60 min): -1.1 °C
Variations of the body temperature ([3]; sc, 1.56 mg/kg, 180 min): +0.1 °C
LD50 at 168 h [4]: 125 mg/kg
EC50 [5]: > 100 µM
